Literature values, collected in patent publication US5427767A, “Nanocrystalline magnetic iron oxide particles-method for preparation and use in medical diagnostics and therapy” (Institut fur Diagnostikforschung GmbH an der Freien …, priority 1991, dated 1995).

What was measured:
[1] = 0.47 T, water, 40° C
[2] = in vivo

T1 relaxivity [1] | T2 relaxivity [1] | Molecule | allergic potential [2]
~4 1/mmol .phi.s | ~4 1/mmol .phi.s | O=C([O-])CN(CCN(CC(=O)[O-])CC(=O)O)CCN(CC(=O)[O-])CC(=O)O.[Gd+3] [Gd-DTPA] | 
 |  | dextran | adverse allergic potential
